Results taken from US9611275B2 (priority 2012, dated 2017).

Test: Assay for determination of apparent permeability (Papp), bi-directional transport
Conditions: pig, LLC-PK1
With CO[C@@](C)([C@H]1O[C@@H]2SC(N(C)C)=N[C@@H]2[C@@H](O)[C@@H]1O)C(F)(F)F (single isomer, unassigned) [Example 74] the Papp at 3 h, 1 μM was 24.5 ×10⁻⁶ cm/s. For CO[C@H]([C@H]1O[C@@H]2SC(N(C)C)=N[C@@H]2[C@@H](O)[C@@H]1O)C(F)(F)F [Example 2, (3aR,5S,6S,7R,7aR)-2-(dimethylamino)-5-((R)-2,2,2-trifluoro-1-methoxyethyl)-5,6,7,7a-tetrahydro-3aH-pyrano[3,2-d]thiazole-6,7-diol], the Papp at 3 h, 1 μM was 20.8 ×10⁻⁶ cm/s. With CNC1=N[C@@H]2[C@@H](O)[C@H](O)[C@@H]([C@H](Oc3ccccc3)C(F)(F)F)O[C@@H]2S1 [Example 3, (3aR,5S,6S,7R,7aR)-2-(methylamino)-5-((S)-2,2,2-trifluoro-1-phenoxyethyl)-5,6,7,7a-tetrahydro-3aH-pyrano[3,2-d]thiazole-6,7-diol] the Papp at 3 h, 1 μM was 28.3 ×10⁻⁶ cm/s. In the case of CNC1=N[C@@H]2[C@@H](O)[C@H](O)[C@@H]([C@@H](Oc3ccccc3)C(F)(F)F)O[C@@H]2S1 [Example 4, (3aR,5S,6S,7R,7aR)-2-(methylamino)-5-((R)-2,2,2-trifluoro-1-phenoxyethyl)-5,6,7,7a-tetrahydro-3aH-pyrano[3,2-d]thiazole-6,7-diol], the Papp at 3 h, 1 μM is reported as 27.3 ×10⁻⁶ cm/s. CN(C)C1=N[C@@H]2[C@@H](O)[C@H](O)[C@@H]([C@@H](Oc3ccc([N+](=O)[O-])cc3)C(F)(F)F)O[C@@H]2S1 [Example 9, (3aR,5S,6S,7R,7aR)-2-(dimethylamino)-5-((R)-2,2,2-trifluoro-1-(4-nitrophenoxy)ethyl)-5,6,7,7a-tetrahydro-3aH-pyrano[3,2-d]thiazole-6,7-diol] gave a Papp at 3 h, 1 μM of 31.5 ×10⁻⁶ cm/s. Molecule CN[C@H]([C@H]1O[C@@H]2SC(N(C)C)=N[C@@H]2[C@@H](O)[C@@H]1O)C(F)(F)F [Example 16, (3aR,5R,6S,7R,7aR)-2-(dimethylamino)-5-((R)-2,2,2-trifluoro-1-(methylamino)ethyl)-5,6,7,7a-tetrahydro-3aH-pyrano[3,2-d]thiazole-6,7-diol] has a Papp at 3 h, 1 μM of 15.5 ×10⁻⁶ cm/s. With C=CCOc1ccc(CO[C@H]([C@H]2O[C@@H]3SC(N(C)C)=N[C@@H]3[C@@H](O)[C@@H]2O)C(F)(F)F)cc1 [Example 20, (3aR,5S,6S,7R,7aR)-5-((R)-1-(4-(allyloxy)benzyloxy)-2,2,2-trifluoroethyl)-2-(dimethylamino)-5,6,7,7a-tetrahydro-3aH-pyrano[3,2-d]thiazole-6,7-diol] the Papp at 3 h, 1 μM was 29.8 ×10⁻⁶ cm/s. With CCO[C@@H]([C@H]1O[C@@H]2SC(N(C)C)=N[C@@H]2[C@@H](O)[C@@H]1O)C(F)(F)F [Example 22, (3aR,5S,6S,7R,7aR)-2-(dimethylamino)-5-((S)-1-ethoxy-2,2,2-trifluoroethyl)-5,6,7,7a-tetrahydro-3aH-pyrano[3,2-d]thiazole-6,7-diol] the Papp at 3 h, 1 μM was 27.2 ×10⁻⁶ cm/s. CCO[C@H]([C@H]1O[C@@H]2SC(N(C)C)=N[C@@H]2[C@@H](O)[C@@H]1O)C(F)(F)F [Example 23, (3aR,5S,6S,7R,7aR)-2-(dimethylamino)-5-((R)-1-ethoxy-2,2,2-trifluoroethyl)-5,6,7,7a-tetrahydro-3aH-pyrano[3,2-d]thiazole-6,7-diol] showed a Papp at 3 h, 1 μM of 23.6 ×10⁻⁶ cm/s. In the case of CCCO[C@H]([C@H]1O[C@@H]2SC(N(C)C)=N[C@@H]2[C@@H](O)[C@@H]1O)C(F)(F)F [Example 25, (3aR,5S,6S,7R,7aR)-2-(dimethylamino)-5-((R)-2,2,2-trifluoro-1-propoxyethyl)-5,6,7,7a-tetrahydro-3aH-pyrano[3,2-d]thiazole-6,7-diol], the Papp at 3 h, 1 μM is reported as 29.5 ×10⁻⁶ cm/s. In the case of CCCCO[C@H]([C@H]1O[C@@H]2SC(N(C)C)=N[C@@H]2[C@@H](O)[C@@H]1O)C(F)(F)F [Example 26, (3aR,5S,6S,7R,7aR)-5-((R)-1-butoxy-2,2,2-trifluoroethyl)-2-(dimethylamino)-5,6,7,7a-tetrahydro-3aH-pyrano[3,2-d]thiazole-6,7-diol], the Papp at 3 h, 1 μM is reported as 30.8 ×10⁻⁶ cm/s. CCCCCO[C@H]([C@H]1O[C@@H]2SC(N(C)C)=N[C@@H]2[C@@H](O)[C@@H]1O)C(F)(F)F [Example 27, (3aR,5S,6S,7R,7aR)-2-(dimethylamino)-5-((R)-2,2,2-trifluoro-1-(pentyloxy)ethyl)-5,6,7,7a-tetrahydro-3aH-pyrano[3,2-d]thiazole-6,7-diol] showed a Papp at 3 h, 1 μM of 32 ×10⁻⁶ cm/s. Work on CN(C)C1=N[C@@H]2[C@@H](O)[C@H](O)[C@@H]([C@@H](OCCCF)C(F)(F)F)O[C@@H]2S1 [Example 29, (3aR,5S,6S,7R,7aR)-2-(dimethylamino)-5-((R)-2,2,2-trifluoro-1-(3-fluoropropoxy)ethyl)-5,6,7,7a-tetrahydro-3aH-pyrano[3,2-d]thiazole-6,7-diol] yielded a Papp at 3 h, 1 μM of 20.9 ×10⁻⁶ cm/s. Work on CN(C)C1=N[C@@H]2[C@@H](O)[C@H](O)[C@@H]([C@@H](OCCCCF)C(F)(F)F)O[C@@H]2S1 [Example 30, (3aR,5S,6S,7R,7aR)-2-(dimethylamino)-5-((R)-2,2,2-trifluoro-1-(4-fluorobutoxy)ethyl)-5,6,7,7a-tetrahydro-3aH-pyrano[3,2-d]thiazole-6,7-diol] yielded a Papp at 3 h, 1 μM of 30.8 ×10⁻⁶ cm/s. Work on CN(C)C1=N[C@@H]2[C@@H](O)[C@H](O)[C@@H]([C@@H](OCC3CCCCC3)C(F)(F)F)O[C@@H]2S1 [Example 35, (3aR,5S,6S,7R,7aR)-5-((R)-1-(cyclohexylmethoxy)-2,2,2-trifluoroethyl)-2-(dimethylamino)-5,6,7,7a-tetrahydro-3aH-pyrano[3,2-d]thiazole-6,7-diol] yielded a Papp at 3 h, 1 μM of 33.6 ×10⁻⁶ cm/s. CN(C)C1=N[C@@H]2[C@@H](O)[C@H](O)[C@@H]([C@@H](OCCCc3ccc(F)cc3)C(F)(F)F)O[C@@H]2S1 [Example 36, (3aR,5S,6S,7R,7aR)-2-(dimethylamino)-5-((R)-2,2,2-trifluoro-1-(3-(4-fluorophenyl)propoxy)ethyl)-5,6,7,7a-tetrahydro-3aH-pyrano[3,2-d]thiazole-6,7-diol] showed a Papp at 3 h, 1 μM of 28.1 ×10⁻⁶ cm/s. Molecule Cc1ccc(CO[C@H]([C@H]2O[C@@H]3SC(N(C)C)=N[C@@H]3[C@@H](O)[C@@H]2O)C(F)(F)F)cc1 [Example 40, (3aR,5S,6S,7R,7aR)-2-(dimethylamino)-5-((R)-2,2,2-trifluoro-1-(4-methylbenzyloxy)ethy1)-5,6,7,7a-tetrahydro-3aH-pyrano[3,2-d]thiazole-6,7-diol] has a Papp at 3 h, 1 μM of 31.2 ×10⁻⁶ cm/s. With CCc1ccc(CO[C@H]([C@H]2O[C@@H]3SC(N(C)C)=N[C@@H]3[C@@H](O)[C@@H]2O)C(F)(F)F)cc1 [Example 41, (3aR,5S,6S,7R,7aR)-2-(dimethylamino)-5-((R)-1-(4-ethylbenzyloxy)-2,2,2-trifluoroethyl)-5,6,7,7a-tetrahydro-3aH-pyrano[3,2-d]thiazole-6,7-diol] the Papp at 3 h, 1 μM was 30.7 ×10⁻⁶ cm/s. Work on CN(C)C1=N[C@@H]2[C@@H](O)[C@H](O)[C@@H]([C@@H](OCc3cccc(F)c3F)C(F)(F)F)O[C@@H]2S1 [Example 46, (3aR,5S,6S,7R,7aR)-5-((R)-1-(2,3-difluorobenzyloxy)-2,2,2-trifluoroethyl)-2-(dimethylamino)-5,6,7,7a-tetrahydro-3aH-pyrano[3,2-d]thiazole-6,7-diol] yielded a Papp at 3 h, 1 μM of 34.5 ×10⁻⁶ cm/s. For C[C@H](O[C@H]([C@H]1O[C@@H]2SC(N(C)C)=N[C@@H]2[C@@H](O)[C@@H]1O)C(F)(F)F)c1ccccc1 [Example 47, (3aR,5S,6S,7R,7aR)-2-(dimethylamino)-5-((R)-2,2,2-trifluoro-1-((S)-1-phenylethoxy)ethyl)-5,6,7,7a-tetrahydro-3aH-pyrano[3,2-d]thiazole-6,7-diol], the Papp at 3 h, 1 μM was 34 ×10⁻⁶ cm/s.
